Source: patent US20180008579A1, “PHARMACEUTICAL COMPOSITION FOR PREVENTING OR TREATING CHRONIC MYELOID LEUKEMIA AND METHOD USING THE SAME” (MEDPACTO INC., priority 2015, published 2018)

Columns and labels:
[1] = tested on: TKI-resistant T315I TT-CML affected mouse; assay: Flow cytometry of T315I BCR-ABL-GFP+ KLS+ and KLS- cells in TKI-resistant T315I TT-CML affected mouse; format: in vivo; details: ponatinib 15 mg/kg/day, TEW-7197 2.5 mg/kg/day every three days, oral, 30 days; peripheral blood; FIG. 5C
Method: T315I BCR-ABL-GFP^+KLS^+ cells (bold box) and KLS^− cells (dotted box) in the peripheral blood were analyzed by flow cytometry, and the results are shown in FIG. 5A.

[2] = tested on: TT-CML affected mouse; assay: Flow cytometry of GFP/BCR-ABL+ KLS+ and KLS- cells in TT-CML affected mouse; format: in vivo; details: TEW-7197 2.5 mg/kg/day every three days, oral, 30 days, peripheral blood
Method: GFP/BCR-ABL^+c-Kit^+Lineage^−Sca-1^+(KLS^+) cells (bold box) and c-Kit^+Lineage^−Sca-1^− (KLS^−) cells (dotted box) in the peripheral blood were analyzed by flow cytometry, and the results are shown in FIG. 4A.

[3] = tested on: TT-CML affected mouse; assay: Peripheral blood leukocyte number, spleen and cell lineage in drug-administered TT-CML affected mouse; format: in vivo; details: TEW-7197 2.5 mg/kg/day every three days, oral
Excerpt: The number of leukocyte in the peripheral blood of the drug-administered TT-CML affected mouse is shown in FIG. 3A (n=5, NS: not significant), a photograph of the spleen thereof is shown in FIG. 3B (bar: 10 mm), and the weight of the spleen thereof is shown in FIG. 3C (n=3). Further, percentages (%) of T cell (detected using anti-CD4 antibody and anti-CD8 antibody), B cell (detected using anti-B220 antibody), and bone marrow cell (detected using anti-Macl antibody and anti-Gr-1 antibody) among the total BCR-ABL1-GFP^+ cells in the peripheral blood of the TEW-7197-administered TT-CML affected mouse are shown in FIG. 3D (n=3, NS: not significant).

[4] = tested on: human CML-initiating cells; assay: Colony formation of human CML-initiating cells (CD34+CD38-Lin-) co-cultured with OP-9 stromal cells; format: cell-based; details: cells of three CML patients, co-culture with OP-9, 3% oxygen; combination compared to single treatment of dasatinib; FIGS. 6A-6C
Method: Bone marrow mononuclear cells (Allcells, Cat. No. 06-255, 06-620, and 147742, CA) of three patients with chronic CML were prepared. Bone marrow mononuclear cells were stained with anti-CD34(8G12) antibody (BD Biosciences), anti-CD38(HIT2) antibody (BD Biosciences), anti-CD3(SK7) antibody (BD Biosciences), anti-CD16(3G8) antibody (BD Biosciences), anti-CD19(SJ25C1) antibody (BD Biosciences), anti-CD20([…]) antibody (BD Biosciences), anti-CD14(MfP9) antibody (BD Biosciences), and anti-CD56(NCAM16.2) antibody (BD Biosciences). A mouse antibody cocktail recognizing CD3, CD16, CD19, CD20, CD14 and CD56 was used to identify Lineage^- (Lin^-) cells, and CD34^+CD38^-Lin^- cells were separated. […] A control group was prepared in the same manner, except that DMSO was used. Cells were harvested and washed with PBS, and then cultured in methyl cellulose (Stem cell technologies, GFM3434) to measure colony formation of human CML-initiating cells.

In the case of `Cc1cccc(-c2[nH]c(CNc3ccccc3F)nc2-c2ccc3ncnn3c2)n1` [TEW-7197, N-((4-([1,2,4]triazolo[1,5-a]pyridin-6-yl)-5-(6-methylpyridin-2-yl)-1H-imidazol-2-yl)methyl)-2-fluoroaniline], the “percentage of T315I BCR-ABL-GFP+KLS+ cells” value [1] is reported as “remarkably decreased”, the “percentage of KLS+ cells among BCR-ABL1-GFP+ CML cells” value ([2]; FIG. 4C) is reported as “remarkably decreased” and the “percentage of KLS- cells among BCR-ABL1-GFP+ CML cells” value ([2]; dasatinib 5 mg/kg/day, FIG. 4B) is reported as “remarkably decreased”. For the same molecule, the “differentiation of bone marrow cells among the BCR-ABL1-GFP+ cells in peripheral blood” value ([3]; FIG. 3D) was “did not affect differentiation of bone marrow cells”, the “number of leukocyte in the peripheral blood” value ([3]; dasatinib 5 mg/kg/day, about 30 days, compared to vehicle, FIG. 3A) was “increased” and the “splenomegaly (spleen weight)” value ([3]; dasatinib 5 mg/kg/day, about 30 days, compared to vehicle, FIGS. 3B, 3C) was “promoted”. The “colony formation of human CML-initiating cells” value [4] was “significantly inhibited colony formation”.
